Assay results from patent US9040563B2, “Dual inhibitors of farnesyltransferase and geranylgeranyltransferase I” (H. Lee Moffitt Cancer Center and Research Institute, Inc., priority 2010, dated 2015).
Like-named read-outs stand apart in the source and are kept apart here.

Tests used:
hFTase = hFTase (Homo sapiens, UniProt P49354+P49356); assay: In vitro hFTase inhibition: incorporation of [3H]FPP into recombinant H-Ras-CVLS; type: biochemical; conditions: for selectivity (ratio of GGTase-I to FTase IC50s): GGTase-I IC50 / hFTase IC50; for IC50: in vitro, average of three independent assays (n = 3) unless stated, errors are standard deviations
farnesylation of H-Ras = assay: Whole cell inhibition of H-Ras processing (farnesylation), immunoblot, oncogenic H-Ras-transformed NIH3T3 cells; type: cell-based, mouse; conditions: Mus musculus, NIH3T3, whole cells, oncogenic H-Ras-transformed NIH3T3; n = 3 unless stated; read-out: H-Ras processing IC50
Experimental: (§1) In vitro inhibition assays for FTase and GGTase-I were conducted by measuring the incorporation of [^3H]FPP and [^3H]GGPP into recombinant H-Ras-CVLS and H-Ras-CVLL, respectively, as previously described (Vogt, et al., Protein geranylgeranylation, not farnesylation, is required for the G1 to S phase transition in mouse fibroblasts. Oncogene, 1996, 13, 1991-1999). The in vivo inhibition of farnesylation and geranylgeranylation was determined based on the level of inhibition by synthetic compounds of H-Ras and Rap1A processing, respectively (Sun, et al., Both farnesyltransferase and geranylgeranyltransferase I inhibitors are required for inhibition of oncogenic K-Ras prenylation but each alone is sufficient to suppress human tumor growth in nude mouse xenografts. Oncogene, 1998, 16, 1467-1473). […] The separated proteins were transferred to nitrocellulose and immunoblotted using an anti-Ras antibody (Y13-258) or an anti-Rap1A antibody (SantaCruz Biotechnology, Santa Cruz, Calif.), respectively. Antibody reactions were visualized using either peroxidase-conjugated goat anti-rat IgG or goat anti-rabbit IgG (Jackson ImmunoResearch, West Grove, Pa.) and an enhanced chemiluminescence detection system.
(§2) Briefly, in vitro inhibition assays for hFTase and GGTase-I were carried out by measuring the incorporation of [^3H]FPP and [^3H]GGPP into recombinant H-Ras-CVLS and H-Ras-CVLL, respectively, as described previously (Vogt et al., Protein geranylgeranylation, not farnesylation, is required for G1 to S phase transition in mouse fibroblasts. Oncogene. 1996; 13:1991-1999). Whole cell inhibition of farnesylation and geranylgeranylation were determined based on the level of inhibition by synthetic compounds of H-Ras and Rap1A processing, respectively (Sun, et al., Both farnesyltransferase and geranylgeranyltransferase I inhibitors are required for inhibition of oncogenic K-Ras prenylation but each alone is sufficient to suppress human tumor growth in nude mouse xenografts. Oncogene. 1998; 16:1467-1473).

[1] = system: geranylgeranylation of Rap1A; assay: Whole cell inhibition of Rap1A processing (geranylgeranylation), immunoblot, oncogenic H-Ras-transformed NIH3T3 cells; type: cell-based, mouse; conditions: whole cells, oncogenic H-Ras-transformed NIH3T3, n = 3 unless stated, read-out: Rap1A processing IC50
Experimental: as §1, §2

GGTase-I = GGTase-I (Homo sapiens, UniProt P49354+P53609); assay: In vitro GGTase-I inhibition: incorporation of [3H]GGPP into recombinant H-Ras-CVLL; type: biochemical; conditions: average of n = 3 unless stated, errors are standard deviations, read-out: GGTase-1 IC50
[2] = system: Rap-1A geranylgeranylation; assay: Western blot of Rap-1A geranylgeranylation/processing (antibody to un-geranylgeranylated Rap-1A) in treated cells; type: cell-based; conditions: NIH-3T3 overexpressing mutant K-Ras and MDA-MB-231; FIGS. 14, 15
Experimental: The ability of FGTI-2734 to inhibit HDJ-2 farnesylation and Rap-1A geranylgeranylation in human cancer cells was determined next. To this end, the MiaPaca pancreatic cancer cell line and 2 breast cancer cell lines (MDA-MB-468 and MDA-MB-231) were treated with various concentration of the dual inhibitor FGTI-2734, the GGT-1 inhibitor GGTI-2418 or the FT inhibitor FTI-2153 and processed for Western blotting.
Testing has shown that the dual farnesyltransferase and geranygeranyltransferase-I inhibitors are effective on pancreatic tumors (90% of all cases), colonic tumors (30% of all cases), lung tumors (30% of all cases), and breast tumors (10% of all cases). NIH-3T3 cells that overexpress oncogenic mutant K-Ras, seen in FIG. 14, and MDA-MB-231 breast cancer cells with a naturally occurring K-Ras mutation, seen in FIG. 15, were treated with indicated concentrations of FGTI-2734, GGTI-2417 or FTI-2153. FGTI-2734 but not FTI-2153 or GGTI-2417 inhibited K-Ras prenylation. As expected, GGTI-2417 inhibited the processing of Rap1 but not HDJ-2 whereas FTI-2153 inhibited the processing of HDJ-2 but not Rap1.
Mammalian target of rapamycin (mTOR) is a serine/threonine phosphatidylinositol 3-kinase-related kinase responsible for cell growth, proliferation, cell survival, protein synthesis, and transcription. Alteration of the mTOR pathway, either through activation of oncogenes or inactivation of tumor suppressors, disrupts a signaling equilibrium and causes malignant transformation. Studies have shown that phosphorylated S6 (pS6) is related to mTOR pathway alterations, and is useful in determining PI3K-based cancer therapies (Aziz, et al. Phosphatidylinositol-3-Kinase as a Therapeutic Target in Melanoma. Clin Cancer Res. 2009, 15; 3029-3036). Two breast adenocarcinoma and a pancreatic carcinoma cell line were treated with indicated concentrations of FGTI-2734, GGTI-2417 or FTI-2153. Protein extracts were run on a Western Blot using antibody against pS6 (ser240/244) (Cell Signaling Technology, Inc., Danvers, Mass.). […]

SMILES	selectivity (ratio of GGTase-I to FTase IC50s) (hFTase)	IC50 (farnesylation of H-Ras)	IC50 ([1]; Mus musculus)	IC50 (hFTase)	IC50 (GGTase-I)	GGTase-I/FTase selectivity (hFTase; selectivity for hFTase over GGTase-I)	inhibition of Rap1 processing [2]	IC50 [1]
Cn1cnc(S(=O)(=O)N(CCN(Cc2cncn2C)c2ccc(C#N)cc2)CC(=O)NC(C)(C)C)c1 [1ae]	7.1	> 10 µM	> 10 µM	–	–	–	–	–
Cn1cnc(S(=O)(=O)N(CCN(Cc2cncn2C)c2ccc(C#N)cc2)Cc2ccncc2)c1 [1af]	>139	> 10 µM	> 10 µM	–	–	–	–	–
Cn1cnc(S(=O)(=O)N(CCN(Cc2cncn2C)c2ccc(C#N)cc2)CCn2cccc2)c1 [1ag]	17	4.3 ± 1.5 µM	> 10 µM	–	–	–	–	–
Cc1nc(C)c(CN(CCN(Cc2cncn2C)c2ccc(C#N)cc2)S(=O)(=O)c2cn(C)cn2)s1 [1am, [N-(2,4-Dimethyl-thiazol-5-ylmethyl), N-{2-[(4-cyanophenyl)-(3-methyl-3H-imidazol-4-ylmethyl)-amino]-ethyl}]1-methyl-1H-imidazole-4-sulfonamide]	>1.6	> 10 µM	> 10 µM	–	–	–	–	–
Cn1cnc(S(=O)(=O)N(CCN(Cc2cncn2C)c2ccc(C#N)cc2)Cc2ccc(C#N)cc2)c1 [1as]	18	> 10 µM	> 10 µM	–	–	–	–	–
Cn1cnc(S(=O)(=O)N(CCN(Cc2cncn2C)c2ccc(C#N)cc2)CC2CC2)c1 [1aw, [N-(Cyclopropylmethyl), N-{2-[(4-cyanophenyl)-(3-methyl-3H-imidazol-4-ylmethyl)-amino]-ethyl}]1-methyl-1H-imidazole-4-sulfonamide]	>17	> 10 µM	> 10 µM	–	–	–	–	–
Cn1cnc(S(=O)(=O)N(CCN(Cc2cncn2C)c2ccc(C#N)cc2)CC2CCN(C(=O)OC(C)(C)C)CC2)c1 [1ay]	>2.7	> 2 µM	> 2 µM	–	–	–	–	–
Cn1cncc1CN(CCN(Cc1ccccc1)S(=O)(=O)C1CC1)c1ccc(C#N)cc1 [1c, N-Benzyl, N-{2-[(4-cyanophenyl)-(3-methyl-3H-imidazol-4-ylmethyl)-amino]-ethyl}cyclopropanesulfonamide]	65	–	–	0.085 ± 0.0007 µM	5.5 ± 2.7 µM	–	–	–
Cn1cncc1CN(CCN(Cc1ccccc1)S(=O)(=O)c1cccs1)c1ccc(C#N)cc1 [1e]	200	–	> 10 µM	–	≥ 10 µM	–	–	–
Cn1cncc1CN(CCN(Cc1ccccc1)S(=O)(=O)c1cccc2cccnc12)c1ccc(C#N)cc1 [1g]	–	–	> 10 µM	–	≥ 10 µM	333 fold	–	–
CN(C)c1cccc2c(S(=O)(=O)N(CCN(Cc3cncn3C)c3ccc(C#N)cc3)Cc3ccccc3)cccc12 [1h]	63	0.5 ± 0.3 µM	> 10 µM	–	≥ 10 µM	–	–	–
Cn1cncc1CN(CCN(CC1CCCCC1)S(=O)(=O)c1ccccn1)c1ccc(C#N)cc1 [21a, N-(2-((4-cyanophenyl)((1-methyl-1H-imidazol-5-yl)methyl)amino)ethyl)-N-(cyclohexylmethyl)pyridine-2-sulfonamide]	1.5	0.268 ± 0.212 µM	6.2 ± 1.2 µM	–	–	–	–	–
Cn1cncc1CN(CCN(CC1CCCCC1)S(=O)(=O)c1ccccn1)c1ccc(C#N)cn1 [21c, N-(2-((5-cyanopyridin-2-yl)((1-methyl-1H-imidazol-5-yl)methyl)amino)ethyl)-N-(cyclohexylmethyl)pyridine-2-sulfonamide]	2	0.288 ± 0.251 µM	19 µM	–	–	–	–	–
COC(=O)[C@H](CC(C)C)NC(=O)N1CCN(Cc2nc[nH]c2C)C(=O)[C@@H]1Cc1ccccc1 [GGTI-2417, reference compound]	–	–	–	–	–	–	inhibited	–
Cn1cnc(S(=O)(=O)N(CCN(Cc2cncn2C)c2ccc(C#N)cc2)Cc2ccoc2)c1 [compound 1ah, [N-(Furan-3-ylmethyl), N-{2-[(4-cyanophenyl)-(3-methyl-3H-imidazol-4-ylmethyl)-amino]-ethyl}]1-methyl-1H-imidazole-4-sulfonamide]	19	0.65 µM	> 10 µM	–	–	–	–	–
Cc1noc(C)c1CN(CCN(Cc1cncn1C)c1ccc(C#N)cc1)S(=O)(=O)c1cn(C)cn1 [compound 1al, [N-(3,5-Dimethyl-isoxazol-4-ylmethyl), N-{2-[(4-cyanophenyl)-(3-methyl-3H-imidazol-4-ylmethyl)-amino]-ethyl}]1-methyl-1H-imidazole-4-sulfonamide]	2.7	> 10 µM	> 10 µM	–	–	–	–	–
Cc1nn(C)c(C)c1CN(CCN(Cc1cncn1C)c1ccc(C#N)cc1)S(=O)(=O)c1cn(C)cn1 [compound 1an, [N-(1,3,5-Trimethyl-1H-pyrazol-4-ylmethyl), N-{2-[(4-cyanophenyl)-(3-methyl-3H-imidazol-4-ylmethyl)-amino]-ethyl}]1-methyl-1H-imidazole-4-sulfonamide]	>1.9	–	–	5.3 ± 1.7 µM	> 10 µM	–	–	–
Cn1cnc(S(=O)(=O)N(CCN(Cc2cncn2C)c2ccc(C#N)cc2)CC2CCN(c3ncccn3)CC2)c1 [compound 1az]	>20	> 10 µM	> 10 µM	–	–	–	–	–
CCCS(=O)(=O)N(CCN(Cc1cncn1C)c1ccc(C#N)cc1)Cc1ccccc1 [compound 1b, N-Benzyl, N-{2-[(4-cyanophenyl)-(3-methyl-3H-imidazol-4-ylmethyl)-amino]-ethyl}propane-1-sulfonamide]	85	–	> 10 µM	0.048 ± 0.035 µM	4.1 ± 1.7 µM	–	–	–
Cn1cnc(S(=O)(=O)N(CCN(Cc2cnc[nH]2)c2ccc(Br)cc2)Cc2ccccc2)c1 [compound 4]	6.0	5.7 ± 1.2 µM	> 10 µM	0.73 ± 0.02 µM	4.4 µM	–	–	–
Cn1cnc(S(=O)(=O)N(CCN(Cc2cncn2C)c2ccc(Br)cc2)Cc2ccccc2)c1 [compound 5]	6.7	1.6 ± 1.3 µM	–	0.079 ± 0.03 µM	0.53 ± 0.17 µM	–	–	> 10 µM
